Measurements published in patent US20250382305A1 (PTC THERAPEUTICS, INC., priority 2022, published 2025).

Key:
[1] = test system: Total ATXN3 (tATXN3) protein; assay: Endogenous Total ATXN3 (tATXN3) Protein Assay (MSD immunoassay of cell lysates); assay type: cell-based; details: average IC50, total ATXN3 protein in cell lysate after 48 h with compound (Table 1)
Outline: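 Cells in DMEM/10% FBS were plated at 10,000 per well onto 7-point, 3.16-fold compound dilutions in duplicate for 48 h at 37° C, then lysed. Total ATXN3 in lysates was measured by MSD sandwich immunoassay: mouse anti-ATXN3 capture, rabbit anti-ATXN3 detection, SULFO-TAG anti-rabbit. Average IC50 was reported in star bins.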

[2] = test system: ATXN3 pre-mRNA; assay: RT-qPCR Assay to Quantify Exon 4 Skipping in ATXN3 pre-mRNA in Cells; assay type: cell-based; details: percent exon 4 skipping in ATXN3 pre-mRNA, RT-qPCR of cell lysates; average IC50
Outline: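 Cells plated at 10,000/well onto a 7-point, 3.16-fold DMSO dilution series (duplicates), incubated 24 h at 37 °C, then lysed. Exon 4 skipping measured by one-step RT-qPCR (48 °C RT, 40 cycles); IC50 interpolated from dose-response fit of percent skipping.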

Compound	IC50 [1] [nM]	IC50 [2] [nM]
N[C@@H]1CCCO[C@H]1c1c(Cl)c2nc(Cl)nc(NCc3cccs3)c2n1C(F)F [Compound 423, 6-((2R,3R)-3-aminotetrahydro-2H-pyran-2-yl)-2,7-dichloro-5-(difluoromethyl)-N-(thiophen-2-ylmethyl)-5H-pyrrolo[3,2-d]pyrimidin-4-amine]	30 to 300	≤ 30
N[C@H]1COCC[C@@H]1c1sc2c(NCc3ccncc3)cc(Cl)nc2c1Br [Compound 364, 2-((3R,4S)-3-aminotetrahydro-2H-pyran-4-yl)-3-bromo-5-chloro-N-(pyridin-4-ylmethyl)thieno[3,2-b]pyridin-7-amine]	30 to 300	30 to 300
6-((1R,2R)-2-aminocyclohexyl)-N-benzyl-2-chloro-7-methylthieno[3,2-d]pyrimidin-4-amine or 6-((1S,2S)-2-aminocyclohexyl)-N-benzyl-2-chloro-7-methylthieno[3,2-d]pyrimidin-4-amine [Compound 48]	30 to 300	30 to 300
N[C@@H]1CCCCCC[C@@H]1c1sc2c(NCc3cccs3)cc(Cl)nc2c1Cl [Compound 98, 2-((1S,2R)-2-aminocyclooctyl)-3,5-dichloro-N-(thiophen-2-ylmethyl)thieno[3,2-b]pyridin-7-amine]	> 1000	> 1000
N[C@H]1CCC[C@@H]1c1cc2nc(Cl)cc(NCc3cccs3)c2s1 [Compound 10, 2-((1S,2S)-2-aminocyclopentyl)-5-chloro-N-(thiophen-2-ylmethyl)thieno[3,2-b]pyridin-7-amine]	300 to 1000	300 to 1000
N[C@H]1CC=CC[C@@H]1c1sc2c(NCc3cccs3)cc(Cl)nc2c1C#Cc1ccncc1Cl [Compound 447, 2-((1S,6S)-6-aminocyclohex-3-en-1-yl)-5-chloro-3-((3-chloropyridin-4-yl)ethynyl)-N-(thiophen-2-ylmethyl)thieno[3,2-b]pyridin-7-amine]	300 to 1000	300 to 1000
N[C@@H]1CCCCC[C@H]1c1sc2c(NCc3cccs3)cc(Cl)nc2c1-c1ccccc1 [Compound 142, 2-((1R,2R)-2-aminocycloheptyl)-5-chloro-3-phenyl-N-(thiophen-2-ylmethyl)thieno[3,2-b]pyridin-7-amine]	> 1000	> 1000
Cc1c([C@H]2CCC[C@@H]2N)sc2c(NCc3ccco3)cc(Cl)nc12 [Compound 120, 2-((1S,2S)-2-aminocyclopentyl)-5-chloro-N-(furan-2-ylmethyl)-3-methylthieno[3,2-b]pyridin-7-amine]	30 to 300	30 to 300
N[C@H]1CCOC[C@@H]1c1sc2c(NCc3cccs3)cc(Cl)nc2c1Cl [Compound 179, 2-((3R,4S)-4-aminotetrahydro-2H-pyran-3-yl)-3,5-dichloro-N-(thiophen-2-ylmethyl)thieno[3,2-b]pyridin-7-amine]	≤ 30	≤ 30
N[C@@H]1CC=CC[C@H]1c1sc2c(NCc3ccncc3)cc(Cl)nc2c1Br [Compound 373, 2-((1R,6R)-6-aminocyclohex-3-en-1-yl)-3-bromo-5-chloro-N-(pyridin-4-ylmethyl)thieno[3,2-b]pyridin-7-amine]	30 to 300	30 to 300
Cc1c([C@H]2CCCCCC[C@H]2N)sc2c(NCc3cccs3)cc(Cl)nc12 [Compound 93, 2-((1S,2R)-2-aminocyclooctyl)-5-chloro-3-methyl-N-(thiophen-2-ylmethyl)thieno[3,2-b]pyridin-7-amine]	> 1000	> 1000
Cc1c([C@H]2COCC[C@@H]2N)sc2c(NCc3ccco3)cc(Cl)nc12 [Compound 260, 2-((3R,4S)-4-aminotetrahydro-2H-pyran-3-yl)-5-chloro-N-(furan-2-ylmethyl)-3-methylthieno[3,2-b]pyridin-7-amine]	30 to 300	≤ 30
4-(2-((1R,6R)-6-aminocyclohex-3-en-1-yl)-5-chloro-7-((thiophen-2-ylmethyl)amino)thieno[3,2-b]pyridin-3-yl)but-3-yn-1-ol and 4-(2-((1S,6S)-6-aminocyclohex-3-en-1-yl)-5-chloro-7-((thiophen-2-ylmethyl)amino)thieno[3,2-b]pyridin-3-yl)but-3-yn-1-ol [Compound 177]	≤ 30	≤ 30
N[C@H]1CCCO[C@@H]1c1c(Cl)c2nc(Cl)nc(NCc3ccco3)c2n1C(F)F [Compound 271, 6-((2S,3S)-3-aminotetrahydro-2H-pyran-2-yl)-2,7-dichloro-5-(difluoromethyl)-N-(furan-2-ylmethyl)-5H-pyrrolo[3,2-d]pyrimidin-4-amine]	30 to 300	30 to 300
N[C@@H]1CCCC[C@@H]1c1sc2c(NCc3cccs3)cc(Cl)nc2c1Cl [Compound 14, 2-((1S,2R)-2-aminocyclohexyl)-3,5-dichloro-N-(thiophen-2-ylmethyl)thieno[3,2-b]pyridin-7-amine]	> 1000	> 1000
2-((1S,6S)-6-aminocyclohex-3-en-1-yl)-5-chloro-N-(thiophen-2-ylmethyl)thieno[3,2-b]pyridin-7-amine [Compound 448]	> 1000	30 to 300
Cc1c([C@@H]2CC=CC[C@H]2N)sc2c(NCc3ccsc3)cc(Cl)nc12 [Compound 419, 2-((1R,6R)-6-aminocyclohex-3-en-1-yl)-5-chloro-3-methyl-N-(thiophen-3-ylmethyl)thieno[3,2-b]pyridin-7-amine]	30 to 300	30 to 300
N[C@@H]1CC=CC[C@H]1c1sc2c(NCc3ccco3)cc(Cl)nc2c1I [Compound 327, 2-((1R,6R)-6-aminocyclohex-3-en-1-yl)-5-chloro-N-(furan-2-ylmethyl)-3-iodothieno[3,2-b]pyridin-7-amine]	30 to 300	30 to 300
2-((2R,3R)-3-aminotetrahydro-2H-pyran-2-yl)-5-chloro-N-(2-fluorobenzyl)thieno[3,2-b]pyridin-7-amine and 2-((2S,3S)-3-aminotetrahydro-2H-pyran-2-yl)-5-chloro-N-(2-fluorobenzyl)thieno[3,2-b]pyridin-7-amine [Compound 28]	> 1000	> 1000
2-((3R,4S)-4-aminotetrahydro-2H-pyran-3-yl)-3-bromo-5-chloro-N-(thiophen-2-ylmethyl)thieno[3,2-b]pyridin-7-amine and 2-((3S,4R)-4-aminotetrahydro-2H-pyran-3-yl)-3-bromo-5-chloro-N-(thiophen-2-ylmethyl)thieno[3,2-b]pyridin-7-amine [Compound 204]	≤ 30	≤ 30
Cc1c([C@H]2OCCC[C@@H]2N)sc2c(NCc3ccco3)cc(Cl)nc12 [Compound 133, 2-((2S,3S)-3-aminotetrahydro-2H-pyran-2-yl)-5-chloro-N-(furan-2-ylmethyl)-3-methylthieno[3,2-b]pyridin-7-amine]	30 to 300	≤ 30
N[C@H]1CCC[C@@H]1c1sc2c(NCc3cccs3)cc(Cl)nc2c1Br [Compound 8, 2-((1S,2S)-2-aminocyclopentyl)-3-bromo-5-chloro-N-(thiophen-2-ylmethyl)thieno[3,2-b]pyridin-7-amine]	≤ 30	≤ 30
Cc1c([C@H]2CC=CC[C@@H]2N)sc2c(NCc3ccsc3)cc(Cl)nc12 [Compound 247, 2-((1S,6S)-6-aminocyclohex-3-en-1-yl)-5-chloro-3-methyl-N-(thiophen-3-ylmethyl)thieno[3,2-b]pyridin-7-amine]	30 to 300	30 to 300
Cc1c([C@@H]2CCC[C@H]2N)sc2c(NCc3ccccc3)cc(Cl)nc12 [Compound 160, 2-((1R,2R)-2-aminocyclopentyl)-N-benzyl-5-chloro-3-methylthieno[3,2-b]pyridin-7-amine]	> 1000	> 1000
N[C@H]1CCCO[C@@H]1c1c(Cl)c2nc(Cl)cc(NCc3ccco3)c2n1C(F)F [Compound 273, 2-((2S,3S)-3-aminotetrahydro-2H-pyran-2-yl)-3,5-dichloro-1-(difluoromethyl)-N-(furan-2-ylmethyl)-1H-pyrrolo[3,2-b]pyridin-7-amine]	30 to 300	≤ 30
2-((1S,2S)-2-aminocyclohexyl)-5-chloro-3-(fluoromethyl)-N-(thiophen-2-ylmethyl)thieno[3,2-b]pyridin-7-amine and 2-((1R,2R)-2-aminocyclohexyl)-5-chloro-3-(fluoromethyl)-N-(thiophen-2-ylmethyl)thieno[3,2-b]pyridin-7-amine [Compound 400]	300 to 1000	300 to 1000
Cc1c([C@H]2CCC[C@@H]2N)sc2c(NCc3ccccc3)cc(Cl)nc12 [Compound 107, 2-((1S,2S)-2-aminocyclopentyl)-N-benzyl-5-chloro-3-methylthieno[3,2-b]pyridin-7-amine]	300 to 1000	300 to 1000
N[C@H]1CCCC[C@@H]1c1sc2c(NCc3ccncc3)cc(Cl)nc2c1Br [Compound 197, 2-((1S,2S)-2-aminocyclohexyl)-3-bromo-5-chloro-N-(pyridin-4-ylmethyl)thieno[3,2-b]pyridin-7-amine]	≤ 30	≤ 30
Cc1c([C@@H]2[C@@H](N)CCCC2(F)F)sc2c(NCc3cccs3)cc(Cl)nc12 [Compound 338, 2-((1R,6S)-6-amino-2,2-difluorocyclohexyl)-5-chloro-3-methyl-N-(thiophen-2-ylmethyl)thieno[3,2-b]pyridin-7-amine]	30 to 300	30 to 300
